Source: patent publication US20030159171A1, “Novel plant genes and uses thereof” (Syngenta Participations AG, priority 1999, published 2003)

Tested on: sugarbeet NIM-like clone (SEQ ID NO:39 and 63)
Experiment: Northern analysis of sugarbeet NIM-like clone expression after BTH treatment
Assay type: in vivo, Beta vulgaris
Settings: after 100 μM or 300 μM BTH treatment

CSC(=O)c1cccc2nnsc12 [BTH, benzo(1,2,3)thiadiazole-7-carbothioic acid S-methyl ester]
increase of expression of the sugarbeet NIM-like clone (Northern data): three to seven
